# From patent US12606568B2, “SMARCA degraders and uses thereof” (Kymera Therapeutics, Inc., priority 2020, dated 2026)
# Biological target: SMARCA2 (Homo sapiens, UniProt P51531)
# Test: SMARCA2 Western blot MV4-11 degradation
# Type: cell-based
# Design: SMARCA2 and SMARCA4 protein degradation in MV4-11 cells; endogenous in cells; host or cells: MV4-11
# Settings: for Dmax: MV4-11, MV4-11 cells, read-out: SMARCA2 MSD MV411 degradation 24 h: average Dmax %; for Dmax / DC50: 24 h; for DC50 / SMARCA2 MSD MV411 degradation 24 h: average Dmax %: MV4-11 cells; for DC50: read-out: SMARCA2 MSD MV411 degradation 24 h: Mean external-Abs DC50
# Experimental: Example 54. SMARCA2 and SMARCA 4 Western Blot MV4-11 Degradation
# Cells were seeded into 6-well plates (MV4-11: 4×10^6 cells/well/1 ml) and 1 ml of 2× compound solution was added into the well to make the final concentration and the plates were mixed well and incubated for 24 hours (No cytotoxicity was observed). The cell were collected with media and spun at 3000 rpm for 5 minutes. The supernatant was aspirated and the well and the cells were washed with cold PBS once and combined for centrifugation again; the supernatant aspirated again. 200 ul pre-chilled RIPA lysis buffer (Boston BioProducts BP-115D) with protease/phosphatase inhibitor (Roche 05892791001/Roche 04906837001) was directly added into the tube to lyze the cells for 20 minutes on ice. The cell lysate were collected into EP tubes and spun at 13000 rpm for 20 minutes and 72 ul supernatant was transferred to a fresh EP tube containing 18 ul of 5× loading buffer (Beyotime Bio P0015) to make the loading samples. The samples were heated to 100° C. for 10 minutes and cooled to RT and microcentrifuged. 20 ul of samples were loaded onto SDS-PAGE gel (Novex, WG1402BOX) and the gel was run at 80 V for 20 minutes and 120 V for 1.5 hours. The samples were electrotransfer to a NC membrane using wet-transfer method with 250 mA for 2.5 hours. The membrane was blocked with LICOR blocking buffer (LI-COR, 927-50000) for 1 hour. The membrane was washed three times with TBST (CST #9997S), 5 minutes each. Incubation was performed with primary antibody prepared in blocking buffer with 0.1% Tween-20 (Solarbio, P8220) at 4° C. overnight (Anti-SMARCA2/BRM antibody (ab15597) 1:500; Anti-BRG1 antibody [EPR3912] (ab108318) 1:1000; Rabbit anti-Baf180 antibody [EPR15860] (Abcam, ab196022) 1:1000; mouse anti-beta-Actin (8H10D10) (CST #3700) 1:10000). The membrane was washed three times with TBST, 5 minutes each. Incubation with secondary antibody was performed for 1 hour at RT (anti-rabbit IgG (Licor, 926-32211) 1:5000; anti-mouse IgG (LI-COR, 926-68070) 1:5000). The membrane was washed three times with TBST, 5 minutes each and lastly the LiCOR was read.
# The letter codes for SMARCA degradation potency (DC50) include: A (<100 nM), B (100-500 nM), C (501-1000 nM), and D (>1000 nM). The letter codes for the percentage of SMARCA degradation after 24 hours (Dmax %) include: A (>90% degradation), B (>70-90% degradation), C (50-70% degradation), and D (<50% degradation).
# SMARCA2, sequence (P51531 whole entry): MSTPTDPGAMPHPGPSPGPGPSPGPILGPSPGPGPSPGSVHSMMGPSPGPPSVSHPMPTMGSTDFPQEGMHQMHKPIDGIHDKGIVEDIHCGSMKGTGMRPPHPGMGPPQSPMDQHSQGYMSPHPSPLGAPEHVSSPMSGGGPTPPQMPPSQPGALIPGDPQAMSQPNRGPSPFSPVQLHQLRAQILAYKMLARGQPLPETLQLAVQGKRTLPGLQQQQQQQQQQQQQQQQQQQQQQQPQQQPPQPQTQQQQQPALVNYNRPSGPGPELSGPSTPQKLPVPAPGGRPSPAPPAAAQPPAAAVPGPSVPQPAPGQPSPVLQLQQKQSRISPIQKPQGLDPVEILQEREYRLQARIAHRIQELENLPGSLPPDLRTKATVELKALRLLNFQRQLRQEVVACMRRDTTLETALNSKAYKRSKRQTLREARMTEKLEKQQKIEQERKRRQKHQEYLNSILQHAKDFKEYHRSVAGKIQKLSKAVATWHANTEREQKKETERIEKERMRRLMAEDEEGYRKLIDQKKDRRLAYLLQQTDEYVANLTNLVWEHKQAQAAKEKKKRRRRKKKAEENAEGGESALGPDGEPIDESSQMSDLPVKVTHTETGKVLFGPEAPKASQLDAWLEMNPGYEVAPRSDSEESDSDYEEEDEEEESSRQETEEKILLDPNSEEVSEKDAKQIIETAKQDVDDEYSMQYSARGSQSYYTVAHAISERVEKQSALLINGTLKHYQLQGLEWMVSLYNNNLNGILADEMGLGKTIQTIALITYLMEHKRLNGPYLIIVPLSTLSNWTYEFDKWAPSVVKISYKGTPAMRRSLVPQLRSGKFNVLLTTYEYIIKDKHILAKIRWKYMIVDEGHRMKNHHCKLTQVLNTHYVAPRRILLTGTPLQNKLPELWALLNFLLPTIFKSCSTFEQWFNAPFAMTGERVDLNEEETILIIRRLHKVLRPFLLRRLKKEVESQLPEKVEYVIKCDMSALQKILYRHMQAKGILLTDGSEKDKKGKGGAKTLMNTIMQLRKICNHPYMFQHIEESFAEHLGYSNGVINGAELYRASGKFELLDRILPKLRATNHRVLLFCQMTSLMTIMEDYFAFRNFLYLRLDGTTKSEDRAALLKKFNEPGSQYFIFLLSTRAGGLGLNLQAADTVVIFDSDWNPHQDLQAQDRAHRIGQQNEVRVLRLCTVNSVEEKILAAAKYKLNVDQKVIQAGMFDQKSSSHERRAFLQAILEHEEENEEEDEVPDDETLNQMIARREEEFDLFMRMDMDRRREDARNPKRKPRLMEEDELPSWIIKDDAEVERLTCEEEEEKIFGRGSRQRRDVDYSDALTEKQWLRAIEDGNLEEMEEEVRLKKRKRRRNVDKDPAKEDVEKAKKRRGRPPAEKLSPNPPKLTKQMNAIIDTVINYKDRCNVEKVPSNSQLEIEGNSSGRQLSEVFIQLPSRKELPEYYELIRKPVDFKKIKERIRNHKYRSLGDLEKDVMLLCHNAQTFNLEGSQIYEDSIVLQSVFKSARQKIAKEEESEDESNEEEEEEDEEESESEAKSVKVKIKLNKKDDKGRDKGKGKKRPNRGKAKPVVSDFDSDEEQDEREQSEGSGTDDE
Structure (SMILES),Dmax [%],DC50 [nM],SMARCA2 MSD MV411 degradation 24 h: average Dmax %
"Cc1cc(C(C(=O)N2C[C@H](O)C[C@H]2C(=O)NCc2ccc(-c3scnc3C)cc2)C(C)CCN2CCC(c3cnc(N4C5CCC4CN(c4cc(-c6ccccc6O)nnc4N)C5)nc3)CC2)on1 (single isomer, unassigned) [I-45]",> 90,< 100,–
"Cc1cc(C(C(=O)N2C[C@H](O)C[C@H]2C(=O)NCc2ccc(-c3scnc3C)cc2)C(C)CCN2CCC(c3cnc(N4C5CCC4CN(c4cc(-c6ccccc6O)nnc4N)C5)nc3)CC2)on1 (single isomer, unassigned) [I-46]",–,< 100,B (B (>70-90% degradation))
"Cc1cc(C(C(=O)N2C[C@H](O)C[C@H]2C(=O)NCc2ccc(-c3scnc3C)cc2)C(C)CCN2CCC(c3cnc(N4C5CCC4CN(c4cc(-c6ccccc6O)nnc4N)C5)nc3)CC2)on1 (stereo partly drawn) [I-44, (2S,4R)-1-(5-(4-(2-(3-(3-amino-6-(2-hydroxyphenyl)pyridazin-4-yl)-3,8-diazabicyclo[3.2.1]octan-8-yl)pyrimidin-5-yl)piperidin-1-yl)-3-methyl-2-(3-methylisoxazol-5-yl)pentanoyl)-4-hydroxy-N-(4-(4-methylthiazol-5-yl)benzyl)pyrrolidine-2-carboxamide]",70 to 90,< 100,–
"Cc1ncsc1-c1ccc(CNC(=O)[C@@H]2C[C@@H](O)CN2C(=O)[C@@H](c2cc(N3CCC(N4CCC(c5cnc(N6C7CCC6CN(c6cc(-c8ccccc8O)nnc6N)C7)nc5)CC4)CC3)no2)C(C)C)cc1 [I-49, (2S,4R)-1-(2-(3-(4-(2-(3-(3-amino-6-(2-hydroxyphenyl)pyridazin-4-yl)-3,8-diazabicyclo[3.2.1]octan-8-yl)pyrimidin-5-yl)-[1,4′-bipiperidin]-1′-yl)isoxazol-5-yl)-3-methylbutanoyl)-4-hydroxy-N-(4-(4-methylthiazol-5-yl)benzyl)pyrrolidine-2-carboxamide]",> 90,< 100,–
Cc1ncsc1-c1ccc(CNC(=O)[C@@H]2C[C@@H](O)CN2C(=O)[C@@H](c2cc(OCCCCN3CCC(c4cnc(N5C6CCC5CN(c5cc(-c7ccccc7O)nnc5N)C6)nc4)CC3)no2)C(C)C)cc1 [I-56],–,< 100,B (B (>70-90% degradation))
Cc1ncsc1-c1ccc(CNC(=O)[C@@H]2C[C@@H](O)CN2C(=O)[C@H](c2cc(OCCCCN3CCC(c4cnc(N5C6CCC5CN(c5cc(-c7ccccc7O)nnc5N)C6)nc4)CC3)no2)C(C)C)cc1 [I-57],> 90,< 100,–
"Cc1ncsc1-c1ccc(CNC(=O)[C@@H]2C[C@@H](O)CN2C(=O)[C@@H](c2cc(N3CCC(CCN4CCC(c5cnc(N6C7CCC6CN(c6cc(-c8ccccc8O)nnc6N)C7)nc5)CC4)CC3)no2)C(C)C)cc1 [I-62, (2S,4R)-1-((2R)-2-(3-(4-(2-(4-(2-(3-(3-amino-6-(2-hydroxyphenyl)pyridazin-4-yl)-3,8-diazabicyclo[3.2.1]octan-8-yl)pyrimidin-5-yl)piperidin-1-yl)ethyl)piperidin-1-yl)isoxazol-5-yl)-3-methylbutanoyl)-4-hydroxy-N-(4-(4-methylthiazol-5-yl)benzyl)pyrrolidine-2-carboxamide]",50 to 70,100 to 500,–
"Cc1ncsc1-c1ccc(CNC(=O)[C@@H]2C[C@@H](O)CN2C(=O)[C@H](c2cc(N3CCC(CCN4CCC(c5cnc(N6C7CCC6CN(c6cc(-c8ccccc8O)nnc6N)C7)nc5)CC4)CC3)no2)C(C)C)cc1 [I-63, (2S,4R)-1-((2S)-2-(3-(4-(2-(4-(2-(3-(3-amino-6-(2-hydroxyphenyl)pyridazin-4-yl)-3,8-diazabicyclo[3.2.1]octan-8-yl)pyrimidin-5-yl)piperidin-1-yl)ethyl)piperidin-1-yl)isoxazol-5-yl)-3-methylbutanoyl)-4-hydroxy-N-(4-(4-methylthiazol-5-yl)benzyl)pyrrolidine-2-carboxamide]",> 90,< 100,–
"Cc1ncsc1-c1ccc(CNC(=O)[C@@H]2C[C@@H](O)CN2C(=O)[C@@H](NC(=O)C2CC3(C2)CC(N2CCC(c4cnc(N5CCN(c6cc(-c7ccccc7O)nnc6N)CC5)nc4)CC2)C3)C(C)(C)C)cc1 (stereo partly drawn) [I-65, (2S,4R)-1-((S)-2-(6-(4-(2-(4-(3-amino-6-(2-hydroxyphenyl)pyridazin-4-yl)piperazin-1-yl)pyrimidin-5-yl)piperidin-1-yl)spiro[3.3]heptane-2-carboxamido)-3,3-dimethylbutanoyl)-4-hydroxy-N-(4-(4-methylthiazol-5-yl)benzyl)pyrrolidine-2-carboxamide]",50 to 70,< 100,–
"Cc1ncsc1-c1ccc(CNC(=O)[C@@H]2C[C@@H](O)CN2C(=O)[C@@H](NC(=O)C2(F)CC2)C(C)(C)C)c(OC2CCC(N3CCC(c4cnc(N5C6CC[C@@H]5CN(c5cc(-c7ccccc7O)nnc5N)C6)nc4)CC3)CC2)c1 (stereo partly drawn) [I-71, (2S,4R)—N-(2-(((1r,4S)-4-(4-(2-(3-(3-amino-6-(2-hydroxyphenyl)pyridazin-4-yl)-3,8-diazabicyclo[3.2.1]octan-8-yl)pyrimidin-5-yl)piperidin-1-yl)cyclohexyl)oxy)-4-(4-methylthiazol-5-yl)benzyl)-1-((S)-2-(1-fluorocyclopropanecarboxamido)-3,3-dimethylbutanoyl)-4-hydroxypyrrolidine-2-carboxamide]",–,< 100,B (B (>70-90% degradation))
Cc1ncsc1-c1ccc(CNC(=O)[C@@H]2C[C@@H](O)CN2C(=O)[C@@H](NC(=O)C2(F)CC2)C(C)(C)C)c(OCCCCN2CCC(c3cnc(N4C5CCC4CN(c4cc(-c6ccccc6O)nnc4N)C5)nc3)CC2)c1 [I-74],70 to 90,< 100,–
"Cc1ncsc1-c1ccc(CNC(=O)[C@@H]2C[C@@H](O)CN2C(=O)[C@@H](NC(=O)C2(F)CC2)C(C)(C)C)c(OCCCCCCN2CCC(c3cnc(N4C5CCC4CN(c4cc(-c6ccccc6O)nnc4N)C5)nc3)CC2)c1 [I-75, (2S,4R)—N-(2-((6-(4-(2-(3-(3-amino-6-(2-hydroxyphenyl)pyridazin-4-yl)-3,8-diazabicyclo[3.2.1]octan-8-yl)pyrimidin-5-yl)piperidin-1-yl)hexyl)oxy)-4-(4-methylthiazol-5-yl)benzyl)-1-((S)-2-(1-fluorocyclopropanecarboxamido)-3,3-dimethylbutanoyl)-4-hydroxypyrrolidine-2-carboxamide]",70 to 90,< 100,–
"Cc1ncsc1-c1ccc(CNC(=O)[C@@H]2C[C@@H](O)CN2C(=O)[C@@H](NC(=O)CN2C3CCC2CN([C@H]2CC[C@@H](c4cnc(N5C6CCC5CN(c5cc(-c7ccccc7O)nnc5N)C6)nc4)CC2)C3)C(C)(C)C)cc1 [I-77, (2S,4R)-1-((2S)-2-(2-(3-((1s,4R)-4-(2-(3-(3-amino-6-(2-hydroxyphenyl)pyridazin-4-yl)-3,8-diazabicyclo[3.2.1]octan-8-yl)pyrimidin-5-yl)cyclohexyl)-3,8-diazabicyclo[3.2.1]octan-8-yl)acetamido)-3,3-dimethylbutanoyl)-4-hydroxy-N-(4-(4-methylthiazol-5-yl)benzyl)pyrrolidine-2-carboxamide]",70 to 90,< 100,–
